Assays:
adenosine A1 receptor = target: T1, adenosine A1 receptor (Rattus norvegicus, UniProt P25099); test: Adenosine Receptor Binding--A1 Receptor Affinity (RBA1), [3H]-CHA, whole brain membranes; settings: read-out: RBA-1 IC50
T1 construct: Whole brain minus cerebellum and brainstem from male Long-Evans rats; from tissue; host or cells: whole brain minus cerebellum and brainstem, male Long-Evans rats
T1 sequence (P25099 1-326): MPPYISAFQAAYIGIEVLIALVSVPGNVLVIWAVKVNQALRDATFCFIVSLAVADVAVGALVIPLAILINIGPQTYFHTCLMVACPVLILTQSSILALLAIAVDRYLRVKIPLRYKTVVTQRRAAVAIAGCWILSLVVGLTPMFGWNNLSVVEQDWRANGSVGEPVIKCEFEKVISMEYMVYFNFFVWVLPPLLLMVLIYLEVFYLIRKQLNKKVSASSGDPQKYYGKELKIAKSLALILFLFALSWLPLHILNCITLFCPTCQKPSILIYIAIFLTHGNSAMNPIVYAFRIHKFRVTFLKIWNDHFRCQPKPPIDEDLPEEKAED
Protocol: Adenosine Receptor Binding--A1 Receptor Affinity (RBA1 )
Whole brain minus cerebellum and brainstem from male Long-Evans rats (150-200 g) was homogenized in 30 volumes of ice-cold 0.05M Tris-HCl buffer pH 7.7 using a Brinkman Polytron PT-10, (setting number 6 for 20 seconds) and centrifuged for ten minutes at 20,000 xg (Sorvall RC-2), 4° C. The supernatant was discarded, and the pellet was resuspended and centrifuged as before. The pellet was resuspended in 20 ml Tris-HCl buffer containing two International Units/ml of adenosine deaminase (Sigma type III from calf intestinal mucosa), incubated at 37° C. for 30 minutes, then subsequently at 0° C. for ten minutes. The homogenate was again centrifuged, and the final pellet was resuspended in ice-cold 0.05M Tris-HCl buffer pH 7.7 to a concentration of 20 mg/ml original wet tissue weight and used immediately.
Tissue homogenate (10 mg/ml) was incubated in 0.05M Tris-HCl buffer pH 7.7 containing 1.0 nM [^3 H]--N^6 -cyclohexyladenosine ([^3 H]--CHA) with or without test agents in triplicate for one hour at 25° C. Incubation volume was 2 ml. Unbound [^3 H]--CHA was separated by rapid filtration under reduced pressure through Whatman glass fiber (GF/B) filters. The filters were rinsed three times with 5 ml of ice cold 0.05M Tris-HCl buffer pH 7.7. The radio-labeled ligand retained on the filter was measured by liquid scintillation spectrophotometry after shaking the filters for one hour or longer on a mechanical shaker in 10 ml of Beckman Ready-Solv HP scintillation cocktail.
Nonspecific binding was defined as the binding which occurred in the presence of 1 mM theophylline. The concentration of test agent which inhibited 50% of the specific binding (IC50) was determined by nonlinear computer curve fit. The Scatchard plot was calculated by linear regression of the line obtained by plotting the amount of radioligand bound (pmoles/gram of tissue) [formula] Since the amount of radioligand bound was a small fraction of the total amount added, free radioligand was defined as the concentration of (nM) of radioligand added to the incubation mixture. The Hill coefficient was calculated by linear regression of the line obtained by plotting the log of the bound radioligand vs the log of the [formula] The maximal number of binding sites (Bmax) was calculated from the Scatchard plot.

[1] = Mouse Activity and Screen Test Procedure (MAST): inhibition of spontaneous locomotion; assay type: in vivo, Swiss-Webster male mice; settings: IP, 1 h, read-out: Inhibition of motor activity
From the text: (§1) The compounds of the invention are new chemical substances which are useful as pharmaceutical agents for the treatment of psychoses. The antipsychotic activity of representative compounds of the invention was established by the Mouse Activity and Screen Test Procedure (MAST) described below. Animals Nine unfasted Swiss-Webster male mice weighing 20-30 g are equally divided into three groups for each drug dose to be tested. That is, data for each dose level was generated by three separate groups of three mice each. Drugs A minimum of three dose levels (10, 30, and 100 mg/kg) are tested for each drug. Treatments are administered intraperitoneally one hour prior to testing. All dosages are calculated as parent compound and given in volumes of 10 ml/kg. Compounds are dissolved or suspended in 0.2% Methocel. Control animals are injected with Methocel. Testing A two part testing procedure is started one hour postinjection. First, the screen test (ST) is performed (see Pharmac. Biochem. Behav. 6, 351-353, 1977). Briefly this test consists of placing mice on individual wire screens which are then rotated 180 degrees at the start of a 60 second observation period. The number of mice falling off the inverted screen is recorded. Immediately following the screen test, the final phase of testing is initiated by placing each group of three mice in one actophotometer (Life Sciences, 22, 1067-1076, 1978). The actophotometer consists of a cylindrical chamber whose center is occupied by another cylinder which contains the illumination for six photocells located on the perimeter of the chamber. Six light-beam interruptions equal one count. Locomotor activity is recorded by computer at ten minute intervals for 60 minutes. Data The data obtained from the screen test are expressed as percent of mice falling off the screen. Data derived from locomotor activity of drug treated mice are compared to the activity of vehicle treated animals and are expressed as percent inhibition of spontaneous locomotion. All percentages reported for inhibition of locomotion (LI) are based upon data accumulated for one hour. Both phases of testing are graded: A=60-100%; C=31-59%; and N=0-30%. An overall dose rating is obtained by the following criteria: […]

[2] = Mouse Activity and Screen Test Procedure (MAST): screen test; assay type: in vivo, Swiss-Webster male mice; settings: IP
From the text: as §1, with “recorded.” for “recorded. Immediately following the screen test, the final phase of testing is initiated by placing each group of three mice in one actophotometer (Life Sciences, 22, 1067-1076, 1978). The actophotometer consists of a cylindrical chamber whose center is occupied by another cylinder which contains the illumination for six photocells located on the perimeter of the chamber. Six light-beam interruptions equal one count. Locomotor activity is recorded by computer at ten minute intervals for 60 minutes.”

| Structure (SMILES) | IC50 (adenosine A1 receptor) [nM] | inhibition in vivo at 3 mg/kg [1] [%] | inhibition in vivo at 10 mg/kg [1] [%] | inhibition in vivo at 30 mg/kg [1] [%] | Inhibition of screen test failure ([2]; 3 mg/kg) [%] | Inhibition of screen test failure ([2]; 10 mg/kg) [%] | Inhibition of screen test failure ([2]; 30 mg/kg) [%] | inhibition in vivo at 1 mg/kg [1] [%] | Inhibition of screen test failure ([2]; 1.0 mg/kg) [%] | inhibition in vivo at 0.03 mg/kg ([1]; 0.03 mg/kg) [%] | inhibition in vivo at 0.1 mg/kg ([1]; 0.1 mg/kg) [%] | inhibition in vivo at 0.3 mg/kg [1] [%] | Inhibition of screen test failure ([2]; 0.03 mg/kg) [%] | Inhibition of screen test failure ([2]; 0.1 mg/kg) [%] | Inhibition of screen test failure ([2]; 0.3 mg/kg) [%] | inhibition in vivo at 100 mg/kg ([1]; 100 mg/kg) [%] | Inhibition of screen test failure ([2]; 100 mg/kg) [%] |
| --- | --- | --- | --- | --- | --- | --- | --- | --- | --- | --- | --- | --- | --- | --- | --- | --- | --- |
| O[C@@H]1[C@H](O)[C@@H](CCl)O[C@H]1n1cnc2c(NCC3(c4cccs4)CC3)ncnc21 [Example 6, 5'-Chloro-5'-deoxy-N6-((1-thien-2-ylcyclopropyl)methyl)adenosine] | 18 | 11 | 16 | 51 | 0 | 0 | 0 |  |  |  |  |  |  |  |  |  |  |
| OC[C@H]1O[C@@H](n2cnc3c(NCC4(c5ccc(Cl)cc5)CC4)ncnc32)[C@H](O)[C@@H]1O [Example 12, N6-((1-(4-Chlorophenyl)cyclopropyl)methyl)adenosine] | 70 | -4 | 5 | 20 | 0 | 0 | 0 |  |  |  |  |  |  |  |  |  |  |
| OC[C@H]1O[C@@H](n2cnc3c(NCC4(c5ccccc5)CCC4)ncnc32)[C@H](O)[C@@H]1O [Example 7, N6-((1-Phenylcyclobutyl)methyl)adenosine] | 16 | 21 | 82 |  | 0 | 0 |  | 5 | 0 |  |  |  |  |  |  |  |  |
| OC[C@H]1O[C@@H](n2cnc3c(NCC4(c5ccccc5)CCCCC4)ncnc32)[C@H](O)[C@@H]1O [Example 11, N6-((1-Phenylcyclohexyl)methyl)adenosine] | 410 | 15 | -10 | 34 | 11 | 0 | 0 |  |  |  |  |  |  |  |  |  |  |
| OC[C@H]1O[C@@H](n2cnc3c(NCC4(c5cccs5)CCC4)ncnc32)[C@H](O)[C@@H]1O [Example 9, N6-((1-Thien-2-ylcyclobutyl)methyl)adenosine] | 5.6 | 43 | 86 | 94 | 0 | 0 | 0 |  |  |  |  |  |  |  |  |  |  |
| OC[C@H]1O[C@@H](n2cnc3c(NCC4(c5ccccc5)CCCC4)ncnc32)[C@H](O)[C@@H]1O [Example 10, N6-((1-Phenylcyclopentyl)methyl)adenosine] | 110 | -7 | 12 | 49 | 11 | 0 | 22 |  |  |  |  |  |  |  |  |  |  |
| OC[C@H]1O[C@@H](n2cnc3c(NCC4(c5cccs5)CC4)ncnc32)[C@H](O)[C@@H]1O [Example 3, N6-((1-Thien-2-ylcyclopropyl)methyl)adenosine] | 7.3 | 89 | 93 |  | 0 | 0 |  | 85 | 0 | 17 | 40 | 70 | 0 | 0 | 0 |  |  |
| OC[C@H]1O[C@@H](n2cnc3c(NCC4(c5ccccc5)CC4)ncnc32)[C@H](O)[C@@H]1O [Example 1, N6-((1-Phenylcyclopropyl)methyl)adenosine] | 28 | 38 | 92 | 98 | 0 | 0 | 22 | 48 | 0 |  |  | 43 |  |  | 11 | 100 | 44 |
